{"source": "paper PMC4806491", "about": "“The milk-derived fusion peptide, ACFP, suppresses the growth of primary human ovarian cancer cells by regulating apoptotic gene expression and signaling pathways” (BMC Cancer, 2016)", "assay": "oil (octanol)/water partition coefficient", "assay_type": "physicochemical", "details": "pH 7, preliminary experiments", "note": "Positions of bridges follow the written chain, without caps; N, C: chain ends. Residues, ends and D or L forms follow the SMILES beside them."}
{"smiles": "CC[C@H](C)[C@@H]1NC(=O)[C@H](CO)NC(=O)[C@@H]2CCCN2C(=O)[C@H](C)NC(=O)CNC(=O)[C@H](CC(C)C)NC(=O)[C@H](CCCCN)NC(=O)[C@H](CCCCN)NC(=O)[C@H](CCSC)NC(=O)[C@H](CCCNC(=N)N)NC(=O)[C@H](Cc2c[nH]c3ccccc23)NC(=O)[C@H](CCC(N)=O)NC(=O)[C@H](Cc2c[nH]c3ccccc23)NC(=O)[C@H](CCCNC(=N)N)NC(=O)[C@H](CCCNC(=N)N)NC(=O)[C@@H](NC(=O)[C@H](CCCCN)NC(=O)[C@@H](N)Cc2ccccc2)CSSC[C@@H](C(=O)N[C@H](C(=O)N[C@@H](CCCNC(=N)N)C(=O)N[C@@H](CCCNC(=N)N)C(=O)N[C@@H](C)C(=O)N[C@@H](Cc2ccccc2)C(=O)NCC(=O)NCC(=O)NCC(=O)NCC(=O)N[C@@H](CO)C(=O)N2CCC[C@H]2C(=O)NCC(=O)N2CCC[C@H]2C(=O)N[C@H](C(=O)N2CCC[C@H]2C(=O)N[C@@H](CC(N)=O)C(=O)O)[C@@H](C)CC)C(C)C)NC(=O)[C@H]([C@@H](C)O)NC1=O", "note": "[ACFP] (H-FKCRRWQWRMKKLGAPSITCVRRAFGGGGSPGPIPN-OH; disulfide 3-20; N-terminus and C-terminus assumed)", "values": [{"measurement": "logD", "value": -0.91}]}
